In brackets after ≈: the same amount, converted by molar mass. Like-named read-outs stand apart in the source and are kept apart here.
System: extended bacterial panel
Test: MIC against an extended bacterial panel (Table 15)
Format: cell-based

CC(=O)NC[C@H]1CN(c2ccc(N3CCOCC3)c(F)c2)C(=O)O1 [Linezolid]
MIC (Staphylococcus aureus, ATCC 700699 / MRSA / VISA, Staphylococcus aureus Mu50, ATCC 700699, MRSA/VISA, read-out: MIC): 2 µg/mL (≈ 5.93 µM)
MIC (Staphylococcus aureus, MRSA / NRS 3 / VISA, Staphylococcus aureus NRS3, MRSA/VISA, read-out: MIC): 1 µg/mL (≈ 2.96 µM)
MIC (Staphylococcus aureus, MRSA / NRS 17 / VISA, Staphylococcus aureus NRS17, MRSA/VISA, read-out: MIC): 2 µg/mL (≈ 5.93 µM)
MIC (Staphylococcus aureus, MRSA / NRS 22 / USA600 / VISA, Staphylococcus aureus NRS22, USA600 MRSA/VISA, read-out: MIC): 4 µg/mL (≈ 11.9 µM)
MIC (Staphylococcus aureus, MRSA / NRS 56 / VISA, Staphylococcus aureus NRS56, MRSA/VISA, read-out: MIC): 2 µg/mL (≈ 5.93 µM)
MIC (Staphylococcus aureus, MRSA / NRS 100, Staphylococcus aureus COL, NRS100, MRSA, read-out: MIC): 2 µg/mL (≈ 5.93 µM)
MIC (Staphylococcus aureus, MRSA / NRS 269, Staphylococcus aureus NRS269, MRSA TGC-NS, read-out: MIC): 2 µg/mL (≈ 5.93 µM)
MIC (Staphylococcus aureus, MRSA / NRS 402 / VISA, Staphylococcus aureus NRS402, MRSA/VISA DAP-NS): 1 µg/mL (≈ 2.96 µM)
MIC (Staphylococcus aureus, MRSA / VISA, Staphylococcus aureus FDA-CDC AR-BANK# 0215, MRSA/VISA, read-out: MIC): 4 µg/mL (≈ 11.9 µM)
MIC (Staphylococcus aureus, MRSA / VISA, Staphylococcus aureus FDA-CDC AR-BANK# 0216, MRSA/VISA, read-out: MIC): 2 µg/mL (≈ 5.93 µM)
MIC (Staphylococcus aureus, MRSA / VISA, Staphylococcus aureus FDA-CDC AR-BANK# 0217, MRSA/VISA, read-out: MIC): 1 µg/mL (≈ 2.96 µM)
MIC (Staphylococcus aureus, MRSA / VISA, Staphylococcus aureus FDA-CDC AR-BANK# 0218, MRSA/VISA Mupirocin-R, read-out: MIC): 1 µg/mL (≈ 2.96 µM)
MIC (Staphylococcus aureus, MRSA / VISA, Staphylococcus aureus FDA-CDC AR-BANK# 0219, MRSA/VISA, read-out: MIC): 2 µg/mL (≈ 5.93 µM)
MIC (Staphylococcus aureus, MRSA / VISA, Staphylococcus aureus FDA-CDC AR-BANK# 0220, MRSA/VISA, read-out: MIC): 2 µg/mL (≈ 5.93 µM)
MIC (Staphylococcus aureus, MRSA / VISA, Staphylococcus aureus FDA-CDC AR-BANK# 0221, MRSA/VISA, read-out: MIC): 2 µg/mL (≈ 5.93 µM)
MIC (Staphylococcus aureus, MRSA / VISA, Staphylococcus aureus FDA-CDC AR-BANK# 0223, MRSA/VISA, read-out: MIC): 2 µg/mL (≈ 5.93 µM)
MIC (Staphylococcus aureus, MRSA / VISA, Staphylococcus aureus FDA-CDC AR-BANK# 0224, MRSA/VISA Mupirocin-R, read-out: MIC): 4 µg/mL (≈ 11.9 µM)
MIC (Staphylococcus aureus, MRSA / VISA, Staphylococcus aureus FDA-CDC AR-BANK# 0225, MRSA/VISA, read-out: MIC): 2 µg/mL (≈ 5.93 µM)
MIC (Staphylococcus aureus, MRSA / VISA, Staphylococcus aureus FDA-CDC AR-BANK# 0226, MRSA/VISA, read-out: MIC): 2 µg/mL (≈ 5.93 µM)
MIC (Staphylococcus aureus, MRSA / VISA, Staphylococcus aureus FDA-CDC AR-BANK# 0227, MRSA/VISA, read-out: MIC): 4 µg/mL (≈ 11.9 µM)
MIC (Staphylococcus aureus, MRSA / VISA, Staphylococcus aureus FDA-CDC AR-BANK# 0228, MRSA/VISA Mupirocin-R, read-out: MIC): 2 µg/mL (≈ 5.93 µM)
MIC (Staphylococcus aureus, MRSA / VRSA, Staphylococcus aureus VRS1, VanA MRSA/VRSA, read-out: MIC): 2 µg/mL (≈ 5.93 µM)
MIC (Staphylococcus aureus, MRSA / VRSA, Staphylococcus aureus VRS2, VanA MRSA/VRSA, read-out: MIC): 2 µg/mL (≈ 5.93 µM)
MIC (Staphylococcus aureus, MRSA / VRSA, Staphylococcus aureus VRS3a, VanA MRSA/VRSA, read-out: MIC): 4 µg/mL (≈ 11.9 µM)
MIC (Staphylococcus aureus, MRSA / VRSA, Staphylococcus aureus VRS11b, VanA MRSA/VRSA, read-out: MIC): 2 µg/mL (≈ 5.93 µM)
MIC (Staphylococcus aureus, MRSA, Staphylococcus aureus ECL 2963666, MRSA DAP-NS, read-out: MIC): 1 µg/mL (≈ 2.96 µM)
MIC (Staphylococcus aureus, NRS 12 / VISA, Staphylococcus aureus NRS12, VISA, read-out: MIC): 4 µg/mL (≈ 11.9 µM)
MIC (Staphylococcus aureus, VISA, Staphylococcus aureus FDA-CDC AR-BANK# 0222, VISA, read-out: MIC): 2 µg/mL (≈ 5.93 µM)
MIC (Staphylococcus aureus, VRSA, Staphylococcus aureus ECL 2963646, VRSA, read-out: MIC): 2 µg/mL (≈ 5.93 µM)
MIC (Staphylococcus epidermidis, NRS7, Staphylococcus epidermidis NRS7, VISE, read-out: MIC): 4 µg/mL (≈ 11.9 µM)
MIC (Staphylococcus epidermidis, NRS8, Staphylococcus epidermidis NRS8, VISE, read-out: MIC): 2 µg/mL (≈ 5.93 µM)
MIC (Staphylococcus epidermidis, NRS60, Staphylococcus epidermidis NRS60, VISE, read-out: MIC): 2 µg/mL (≈ 5.93 µM)

Reference: patent US11746116B2, “Antibiotic resistance breakers” (KING'S COLLEGE LONDON, priority 2017, dated 2023)
